Data from US10933134B2, “Combination therapies for treatment of cancer” (priority 2017, dated 2021).
Non-standard residues stand in square brackets, D forms with d. Residues, ends and D or L forms follow the SMILES beside them. *: point of attachment. dPhe(4-NHCONH2) = NC(=O)Nc1ccc(C[C@@H](N)C(=O)O)cc1; Dihydroorotyl(S) = O=C1C[C@@H](C(=O)*)NC(=O)N1; dPhe(4-Cl) = N[C@H](Cc1ccc(Cl)cc1)C(=O)O; Phe(4-NH2) = Nc1ccc(C[C@H](N)C(=O)O)cc1; d2Nal = N[C@H](Cc1ccc2ccccc2c1)C(=O)O; Lys(iPr) = CC(C)NCCCC[C@H](N)C(=O)O; d3Pal = N[C@H](Cc1cccnc1)C(=O)O

Experiments:
LNCaP-AR tumors = experiment: Histology and immunohistochemistry of treated tumors (TUNEL, AR, Ki67); assay type: in vivo, mice; conditions: for TUNEL staining (cell death): tumors on days three and seven post-VTP (FIG. 5B)
Description: (§1) (v) Histology and immunohistochemistry: All tumor specimens were fixed in 10% buffered formalin (Fisher Scientific, Pittsburgh, Pa.), processed routinely, embedded in paraffin, sectioned at 5-micron thickness, and stained with hematoxylin-eosin (H&E). Immunohistochemistry (IHC) of tumors was performed on 5 micron formalin-fixed paraffin embedded (FFPE) section following heat induced epitope retrieval (HIER) in a buffer at pH 9.0. AR staining with anti-AR antibody (at 0.66 μg/ml, Abcam, Cambridge, Mass.) and TUNEL staining for cell death with terminal deoxynucleotidyl transferase dUTP nick-end labeling (Roche Diagnostics, Indianapolis, Ind.) was performed using Discovery XT processor (Ventana Medical Systems, Inc., Tucson, Ariz.) at the Molecular Cytology core facility. IHC staining for CD31 and Ki67 markers was performed on FFPE sections at the Laboratory of Comparative Pathology on a Leica Bond RX automated stainer (Leica Biosystems, Buffalo Grove, Ill.). […] For quantification of CD31, Ki67 and TUNEL staining, whole slide digital images were generated on a scanner (Pannoramic 250 Flash III, 3DHistech, 20×/0.8NA objective, Budapest, Hungary) at a resolution of 0.2431 μm per pixel. Staining quantification was performed with QuPath 0.1.2 software (Centre for Cancer Research & Cell Biology, Queen's University Belfast, UK). […] For CD31 and TUNEL, the positive area, defined as the ratio of DAB stained pixels to total ROI area, was measured using the positive pixel count algorithm. For Ki67, the ratio (percentage) of cells with positive nuclear staining to total cell number was measured with the positive cell detection algorithm. […]
(§2) (vii) Statistical analysis: Two-way ANOVA test using GraphPad Prism (GraphPad Software, La Jolla, Calif.) was used for therapeutic efficacy in affecting tumor growth, and One-way ANOVA for PSA and a Mann-Whitney test for CD31, Ki67 or TUNEL staining quantification. […]

total PSA (tPSA) = experiment: Serum total PSA in mice bearing LNCaP-AR tumors; assay type: in vivo; conditions: one, three, or seven days post-WST11 VTP (FIG. 5A)
Description: This assay measures free PSA and complexed PSA in an equimolar fashion [Ulmert et al., 2012; Mitrunen et al., 1995], and the cross-reactivity of PSA-ACT for free PSA is less than 0.2% [Pettersson et al., 1995]. The lower limits of detection are 0.1 ng/mL for both total PSA and free PSA. For detection, the 1235 automatic immunoassay system from Perkin-Elmer Life Sciences (Waltham, Mass.) was used.
(vii) Statistical analysis: Two-way ANOVA test using GraphPad Prism (GraphPad Software, La Jolla, Calif.) was used for therapeutic efficacy in affecting tumor growth, and One-way ANOVA for PSA and a Mann-Whitney test for CD31, Ki67 or TUNEL staining quantification. Differences with p values<0.05 were considered statistically significant.
To verify that AR activity was inhibited by the treatments, the levels of total PSA (tPSA) in serum of mice bearing LNCaP-AR tumors were measured. Serum tPSA values were determined in separate cohorts of mice at one, three, or seven days post-WST11 VTP (four, six or ten days post-degarelix).

CD31 = CD31 IHC staining of tumors (vessel quantification); assay type: in vivo, mice
Description: as §1, with “9.0.” for “9.0. AR staining with anti-AR antibody (at 0.66 μg/ml, Abcam, Cambridge, Mass.) and TUNEL staining for cell death with terminal deoxynucleotidyl transferase dUTP nick-end labeling (Roche Diagnostics, Indianapolis, Ind.) was performed using Discovery XT processor (Ventana Medical Systems, Inc., Tucson, Ariz.) at the Molecular Cytology core facility. IHC staining for CD31 and Ki67 markers was performed on FFPE sections at the Laboratory of Comparative Pathology on a Leica Bond RX automated stainer (Leica Biosystems, Buffalo Grove, Ill.).”
as §2

[1] = system: LNCaP-AR xenograft tumors; experiment: GSEA transcriptome analysis of LNCaP-AR xenografts following VTP; assay type: in vivo, SCID mice
Description: (vi) GSEA for transcriptome analysis of LNCaP-AR xenografts following VTP treatment: LNCaP/AR xenografts were established in intact SCID mice by injecting 2 million cells as described previously [Chen et al., 2004] and, once established, were treated with VTP at 9 mg/kg WST11 followed by 753 nm illumination at 100 mW/cm^2 laser fluence. Tumors were collected at 3, 6, or 24 hours, 1 week and 8.5 weeks post VTP and RNA was isolated following the standard protocol using TRIzol (Fisher Scientific). Expression profiling was performed using Illumina HT-12 Expression BeadChip array and the data was analyzed using Partek Genomics Suite (Partek Inc., St. Louis, Mo.). The microarray data then underwent secondary analysis by GSEA [Subramanian et al., 2005] using gene sets from the Hallmark and C2, Canonical Pathways collections (Molecular Signature Databases v6.0 (MSigDB); Broad Institute at http site //software.broadinstitute.org/gsea/msigdb.GSEA| MSigDB. Accessed 19 Jun. 2017. Microarray data has been deposited in the National Center for Biotechnology Information Gene Expression Omnibus (GEO) (GSE109681). To identify potential druggable pathways active in PCa that could be exploited for combination therapy with VTP, we analyzed the transcriptome of LNCaP-AR xenograft tumors following acute response to VTP exposure. […]

low-risk, localized PCa = conditions: cited from earlier work

CC(=O)N[C@H](Cc1ccc2ccccc2c1)C(=O)N[C@H](Cc1ccc(Cl)cc1)C(=O)N[C@H](Cc1cccnc1)C(=O)N[C@@H](CO)C(=O)N[C@@H](Cc1ccc(NC(=O)[C@@H]2CC(=O)NC(=O)N2)cc1)C(=O)N[C@H](Cc1ccc(NC(N)=O)cc1)C(=O)N[C@@H](CC(C)C)C(=O)N[C@@H](CCCCNC(C)C)C(=O)N1CCC[C@H]1C(=O)N[C@H](C)C(N)=O [degarelix] (Ac-[d2Nal][dPhe(4-Cl)][d3Pal]S[Phe(4-NH2)](Dihydroorotyl(S))[dPhe(4-NHCONH2)]L[Lys(iPr)]P[dA]-NH2)
Ki67 signal (tumor proliferation) (LNCaP-AR tumors; day 7 post-VTP, p<0.05 vs controls (FIG. 5C)): reduced Ki67 signal compared to controls
TUNEL staining (cell death) (LNCaP-AR tumors): little TUNEL staining
fold changes of serum tPSA (total PSA (tPSA)): declined
number of vessels in tumors by CD31 image analysis (CD31; FIG. 6A, versus control group): appear to have fewer vessels
decrease in CD31 staining area compared to controls (CD31; degarelix-treated n=11 vs control n=12, p<0.05 (FIG. 6B)): 38%

CCC1c2cc3[n-]c(c(CC(=O)OC)c4nc(cc5[n-]c(cc(n2)C1C)c(C(C)=O)c5C)C(C)C4CCC(=O)[O-])c(C(=O)NCCS(=O)(=O)[O-])c3C.[K+].[K+].[Pd+2] (centres unmarked) [WST11/VTP, Palladium 3^1-oxo-15-methoxycarbonylmethyl-rhodobacteriochlorin 13^1-(2-sulfoethyl) amide dipotassium salt]
gene sets related to hypoxia, HIF1A, and VEGFR pathways (GSEA) ([1]; three to six hours post-VTP treatment): statistically significant enrichments
AR signaling gene sets (GSEA) ([1]; three to six hours post-VTP, vs control mice): up-regulated
TUNEL staining (cell death) (LNCaP-AR tumors): partial cell death characterized by large foci of TUNEL staining
fold changes of serum tPSA (total PSA (tPSA)): declined
patients negative for cancer in follow up biopsies (low-risk, localized PCa; 6 months after prostate hemiablation, low-risk localized PCa): 80.6%
HR of disease progression versus active surveillance (low-risk, localized PCa; at 24 months, 95% CI 0.24-0.46, p<0.0001): 0.34
disease progression (low-risk, localized PCa; at 24 months, active surveillance 58%): 28%
patients free of clinically significant cancer in the treated lobes (low-risk, localized PCa; median follow-up of 68 months): 82%
treated patients who avoided a need for subsequent radical therapy (low-risk, localized PCa; median follow-up of 68 months): 76%
